In patent US6002009A, “Di-substituted 1,4-piperidine esters and amides having 5-HT4 antagonistic activity” (Boehringer Ingelheim Italia, S.p.A., priority 1995, dated 1999) one finds Ki data, which are given here for 17 compounds.

Sequence of 5-HT4 receptor (Q6Q253 1-402): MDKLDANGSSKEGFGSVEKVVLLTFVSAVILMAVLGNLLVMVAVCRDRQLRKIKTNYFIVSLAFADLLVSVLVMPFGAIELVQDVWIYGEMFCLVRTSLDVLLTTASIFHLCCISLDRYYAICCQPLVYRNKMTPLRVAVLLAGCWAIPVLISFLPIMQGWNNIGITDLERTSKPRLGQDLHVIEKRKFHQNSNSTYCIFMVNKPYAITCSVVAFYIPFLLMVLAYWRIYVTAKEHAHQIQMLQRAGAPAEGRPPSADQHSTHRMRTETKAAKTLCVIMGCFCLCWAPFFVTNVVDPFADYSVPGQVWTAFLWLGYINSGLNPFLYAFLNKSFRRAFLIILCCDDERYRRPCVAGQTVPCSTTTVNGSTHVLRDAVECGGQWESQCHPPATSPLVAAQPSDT

The test has as its target 5-HT4 receptor (Sus scrofa, UniProt Q6Q253). Kind of test: 5-HT4 receptor binding (competition against [^3 H]-GR 113808, pig striatum). Particulars: 0.1 nM [^3 H]-GR 113808, 30 min at 37° C., read-out: Ki (affinity for the 5-HT4 receptor). The method, then:
The affinity of the compounds of formula (I) for 5-HT4 serotoninergic receptors was tested "in vitro" by receptor binding studies in the pig striatum, a tissue particularly rich in 5-HT4 receptors.
Receptor binding studies on 5-HT4 receptor were carried out to determine the affinity of the test compounds.
Pig striatum was removed, cleaned and homogenized (w/v 1:70) with an Ultra-Turrax at maximal speed for 30 s, followed by use of a Potter-Elvehjem homogenizer (30 strokes) in 50 mM Hepes buffer, pH 7.4 and filtered through two layers of cheese-cloth.
Binding curves for the different compounds were derived indirectly from competition experiments against 0.1 nM [^3 H]-GR 113808.
A 1 ml aliquot of homogenate was incubated for 30 min at 37° C. in the presence of the marker ligand and different concentrations of the cold ligands.
The incubation was stopped by rapid filtration using an automatic apparatus (1H -110 Inotech). The filters (Inotech glass fibre filter, type G7) were then transferred to scintillation vials containing 4 ml of Filter Count (Packard) and the radioactivity present was counted by liquid scintillation spectrometry (Kontron Betamat V). Assays were carried out in triplicated and non specific binding was defined as the radioactivity bound or entrapped in the filter when the incubation medium contained 10 μM of BIMU 0001 (3-ethyl-2,3-dihydro-2-oxo-benzimidazole-1(3a-tropyl carboxamide). Non specific binding was about 10-15%. The inhibition constant (Ki) was calculated after correction for the radioligand occupancy shift according to the equation of Cheng and Prusoff (Biochem. Pharmacol. 22, 3099, 1973).
Turning to `CCNC(=O)N[C@@H](Cc1c[nH]c2ccccc12)CN1CCC(COC(=O)c2cc(Cl)c(N)cc2OC)CC1` [Compound 1, S(+)-4-Amino-5-chloro-2-methoxy-benzoic acid {1-[2-(3-ethyl-ureido)-3-(1H-indol-3-yl)propyl]piperidin-4-yl} methyl, ester], the Ki (usually a measure of affinity in units of concentration, obtained from inhibition or displacement) is 4.6 nM.

For the compound `CCOC(=O)N[C@@H](CCSC)CN1CCC(COC(=O)c2cc(Cl)c(N)cc2OC)CC1` [Compound 9, S(+)-4-Amino-5-chloro-2-methoxy-benzoic acid [1-(2-ethoxycarbonyl-amino-4-methylthio-butyl)-piperidin-4-yl]methyl ester], the Ki amounted to 4.3 nM. As for `COc1cc(N)c(Cl)cc1C(=O)OCC1CCN(C[C@H](Cc2c[nH]c3ccccc23)NC(=O)OCc2ccccc2)CC1` [Compound 10, S(+)-4-Amino-5-chloro-2-methoxybenzoic acid {1-[2-benzyloxycarbonyl-amino-3-(1H-indol-3-yl)-propyl]piperidin-4-yl} methyl ester], the figure is 2.1 nM; as for `COc1cc(N)c(Cl)cc1C(=O)OCC1CCN(C[C@H](Cc2ccccc2)NC(=O)OCc2ccccc2)CC1` [Compound 11, S(+)-4-Amino-5-chloro-2-methoxybenzoic acid [1-(2-benzyloxycarbonyl-amino-3-phenyl-propyl)-piperidin-4-yl]methyl ester], 1.1 nM. As for `CCOC(=O)N[C@@H](CO)CN1CCC(COC(=O)n2c3ccccc3c3ccccc32)CC1` [Compound 12, R(+)-Carbazole-9-carboxylic acid [1(2-ethoxycarbonyl-amino-3-hydroxy-propyl)-piperidin-4-yl]methyl ester], the figure is 2.8 nM; as for `CCNC(=O)N[C@@H](CO)CN1CCC(COC(=O)n2c3ccccc3c3ccccc32)CC1` [Compound 13, R(+)-Carbazole-9-carboxylic acid {1-[2-(3-ethyl-ureido)-3-hydroxy-propyl]-piperidin-4-yl} methyl ester], 4.3 nM; as for `O=C(Nc1ccccc1)N[C@@H](CO)CN1CCC(COC(=O)c2c[nH]c3ccc(F)cc23)CC1` [Compound 16, R(+)-5-Fluoro-1H-indol-3-carboxylic acid {1-[2-(3-phenyl-ureido)-3-hydroxy-propyl]-piperidin-4-yl} methyl ester], 2.9 nM. For `COc1[nH]c2ccc(F)cc2c1C(=O)OCC1CCN(C[C@H](CO)NC(=O)OCc2ccccc2)CC1` [Compound 17, R(+)-5-Fluoro-2-methoxy-1H-indol-3-carboxylic acid [1-(2-benzyloxycarbonyl-amino-3-hydroxy-propyl)-piperidin-4-yl]methyl ester] the value was 0.16 nM; for `CCOC(=O)N[C@@H](CO)CN1CCC(COC(=O)c2c(OC)[nH]c3ccc(F)cc23)CC1` [Compound 19, R(+)-5-Fluoro-2-methoxy-1H-indol-3-carboxylic acid [1-(2-ethoxycarbonyl-amino-3-hydroxy-propyl)piperidin-4-yl]methyl ester], 0.25 nM; for `C[C@@H](CN1CCC(COC(=O)n2c(=O)[nH]c3ccccc32)CC1)NC(=O)OCc1ccccc1` [Compound 21, S(+)-2-Oxo-2,3-dihydro-benzimidazol-1-carboxylic acid [1-(2-benzyloxycarbonyl-amino)-propyl-piperidin-4-yl]-methyl ester], 1.3 nM. Regarding `CCn1c(=O)n(C(=O)OCC2CCN(C[C@H](C)NC(=O)OCc3ccccc3)CC2)c2ccccc21` [Compound 23, S(+)-3-Ethyl-2-oxo-2,3-dihydro-benzimidazol-1-carboxylic acid [1-(2-benzyloxycarbonyl-amino)-propyl-piperidin-4-yl]-methyl ester], the Ki was 0.86 nM. For the compound `CCn1c(=O)n(C(=O)NCC2CCN(C[C@H](CCSC)NC(=O)Nc3ccccc3)CC2)c2ccccc21` [Compound 26, S(-)-3-Ethyl-2-oxo-2,3-dihydro-benzimidazol-1-carboxamide-{1-[2-(3-phenyl-ureido)-4-methylthio-butyl]-piperidin-4-yl-methyl}], the Ki was 1 nM.

`CCn1c(=O)n(C(=O)NCC2CCN(C[C@H](CC(N)=O)NC(=O)Nc3ccccc3)CC2)c2ccccc21` [Compound 30, S(+)-3-Ethyl-2-oxo-2,3-dihydro-benzimidazol-1-carboxamide-{1-[2-(3-phenyl-ureido)-3-carbamoyl-propyl]-piperidin-4-yl-methyl}]: the Ki was 4.3 nM. As for `CCOC(=O)N[C@@H](CCSC)CN1CCC(CNC(=O)n2c(=O)n(CC)c3ccccc32)CC1` [Compound 34, S(+)-3-Ethyl-2-oxo-2,3-dihydro-benzimidazol-1-carboxamide-[1-(2-ethoxycarbonylamino-4-methylthio-butyl)-piperidin-4-yl-methl]], the figure is 3.2 nM; as for `CCn1c(=O)n(C(=O)NCC2CCN(C[C@H](CO)NC(=O)Nc3ccccc3)CC2)c2ccccc21` [Compound 35, R(+)-3-Ethyl-2-oxo-2,3-dihydro-benzimidazol-1-carboxamide-{1-[2-(3-phenyl-ureido)-3-hydroxy-propyl]-piperidin-4-yl-methyl}], 1.6 nM; as for `CCNC(=O)N[C@@H](CO)CN1CCC(CNC(=O)n2c(=O)n(CC)c3ccccc32)CC1` [Compound 36], 3 nM. As for `CCn1c(=O)n(C(=O)NCC2CCN(C[C@H](CO)NC(=O)OCc3ccccc3)CC2)c2ccccc21` [Compound 37, R(+)-3-Ethyl-2-oxo-2,3-dihydro-benzimidazol-1-carboxamide-[1-(2-benzyloxycarbonylamino-3-hydroxy-propyl)-piperidin-4-yl-methyl]], the figure is 0.37 nM.
